Measurements taken from ChEMBL document CHEMBL1149841, “Synaptosides A and A1, triterpene glycosides from the sea cucumber Synapta maculata containing 3-O-methylglucuronic acid and their cytotoxic activity against tumor cells” (J Nat Prod, 2008).
Active and inactive are the calls of the source. No cut-off for these calls is given here.

Legend:
[1] = system: HeLa; assay: Cytotoxicity against human HeLa cells after 12 hrs at 14.1 ug/ml by MTS reduction assay; format: functional, cell-based
[2] = system: HeLa; assay: Cytotoxicity against human HeLa cells after 12 hrs by MTS reduction assay; format: functional, cell-based

Row | SMILES | Activity [1] | IC50 [2]
1 | CO[C@@H]1[C@@H](O)[C@H](O[C@@H]2[C@@H](O)[C@H](O[C@H]3[C@H](O)[C@@H](O)[C@H](O[C@H]4[C@H](O[C@H]5CC[C@]6(C)C7=C(C(=O)C[C@H]6C5(C)C)[C@]5(C)CC[C@H]6[C@]5(CC7)C(=O)O[C@@]6(C)CC(=O)CC(C)C)OC[C@@H](O[C@@H]5O[C@H](COS(=O)(=O)O)[C@@H](O)[C@H](O)[C@H]5O)[C@@H]4O)O[C@@H]3C)O[C@H](CO)[C@H]2O)O[C@H](C(=O)O)[C@H]1O | inactive | –
2 | CO[C@@H]1[C@@H](O)[C@H](O[C@@H]2[C@@H](O)[C@H](O[C@H]3[C@H](O)[C@@H](O)[C@H](O[C@H]4[C@H](O[C@H]5CC[C@]6(C)[C@@H]7CC[C@]89C(=O)O[C@@](C)(CC(=O)CC(C)C)[C@H]8CC[C@@]9(C)C7=CC[C@H]6C5(C)C)OC[C@@H](O[C@@H]5O[C@H](COS(=O)(=O)[O-])[C@@H](O)[C@H](O)[C@H]5O)[C@@H]4O)O[C@@H]3C)O[C@H](CO)[C@H]2O)O[C@H](C(=O)[O-])[C@H]1O.[Na+].[Na+] [SYNAPTOSIDE A] | – | 8.6 µg/mL
